Source: PMC7584160 (Environmental Health Perspectives, 2020)
Read-outs that look alike come from different tables or passages of the source. One block for each compound: values may come before it.

What was measured:
[1] = test system: GH3 cells; experiment: GH3 cell proliferation assay (individual exposure, with or without amiodarone); assay type: cell-based, rat; settings: 96 h; for LOEC for GH3 cell proliferation: individual exposure
[2] = target: T1, human TRβ-LBD (Homo sapiens, UniProt P10828); experiment: TRβ-LBD fluorescence polarization competitive binding assay (F-T3 probe)
T1 construct: purchased Zhongding Biotechnology Co. Ltd
T1 sequence (P10828 217-461 limits assumed): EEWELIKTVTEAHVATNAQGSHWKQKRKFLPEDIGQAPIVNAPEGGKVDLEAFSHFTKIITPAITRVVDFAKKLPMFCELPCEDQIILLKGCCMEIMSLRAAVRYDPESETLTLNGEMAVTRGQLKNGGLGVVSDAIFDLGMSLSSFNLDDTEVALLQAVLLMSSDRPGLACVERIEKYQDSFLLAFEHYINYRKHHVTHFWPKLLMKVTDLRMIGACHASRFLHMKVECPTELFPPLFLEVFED

[3] = target: T2, human TRα-LBD (Homo sapiens, UniProt P10827); experiment: TRα-LBD fluorescence polarization competitive binding assay (F-T3 probe)
T2 sequence (P10827 163-410 isoform P10827-2 limits assumed): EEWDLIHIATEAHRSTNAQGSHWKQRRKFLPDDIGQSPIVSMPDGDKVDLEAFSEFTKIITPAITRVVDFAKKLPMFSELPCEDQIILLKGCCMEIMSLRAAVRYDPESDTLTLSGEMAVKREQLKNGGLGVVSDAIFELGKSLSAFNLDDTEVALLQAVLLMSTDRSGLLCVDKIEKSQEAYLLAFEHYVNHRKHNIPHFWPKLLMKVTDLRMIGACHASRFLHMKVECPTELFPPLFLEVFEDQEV

[4] = target: T3, human thyroxine-binding globulin (TBG) (Homo sapiens, UniProt P05543); experiment: TBG fluorescence polarization competitive binding assay (F-T4 probe); settings: 100 nM TBG, 50 nM F-T4; up to 50 μM competitor
T3 construct: purchased Calbiochem 612075
T3 sequence (P05543 21-415): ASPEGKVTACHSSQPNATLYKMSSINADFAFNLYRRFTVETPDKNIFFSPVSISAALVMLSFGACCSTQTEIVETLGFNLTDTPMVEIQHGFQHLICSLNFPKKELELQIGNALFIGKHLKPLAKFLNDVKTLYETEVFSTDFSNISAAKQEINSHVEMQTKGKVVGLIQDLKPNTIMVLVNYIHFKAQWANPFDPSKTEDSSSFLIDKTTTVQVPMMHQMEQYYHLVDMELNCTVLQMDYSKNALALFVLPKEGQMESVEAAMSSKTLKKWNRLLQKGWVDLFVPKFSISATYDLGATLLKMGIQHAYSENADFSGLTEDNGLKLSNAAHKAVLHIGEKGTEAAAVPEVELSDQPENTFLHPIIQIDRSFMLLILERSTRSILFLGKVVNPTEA

[5] = test system: GH3 cells; experiment: GH3 cell proliferation assay in the presence of 10 nM T3; assay type: cell-based, rat
[6] = target: T4, human transthyretin (TTR) (Homo sapiens, UniProt P02766); experiment: TTR fluorescence polarization competitive binding assay (F-T4 probe); settings: for TTR RBP (relative binding potency): IC50 of TBBPA divided by that of competitor, TBBPA set as 1.00
T4 construct: purchased Calbiochem 529577

[7] = IC20 of TBBPA divided by that of competitor, TBBPA set as 1.00
[8] = […] nM TRβ-LBD, 50 nM F-T3, pH 7.5, 25°C, linear interpolation, read-out: TRβ-LBD IC20
[9] = […] nM TRα-LBD, 50 nM F-T3, pH 7.5, 25°C, linear interpolation, read-out: TRα-LBD IC20
[10] = […] nM TTR, 50 nM F-T4, pH 7.5, 25°C, linear interpolation, read-out: TTR IC50 (converted)
[11] = co-exposed with 10 nM T3, mass concentration

TRβ-LBD RBP [2, 7]: 1.00 | IC20 [2, 8]: 5000 nM | TRα-LBD RBP [3, 7]: 1.00 | IC20 [3, 9]: 1500 nM | Binding to TBG [4]: did not bind
SMILES: CC(C)(c1cc(Br)c(O)c(Br)c1)c1cc(Br)c(O)c(Br)c1 [TBBPA, Tetrabromobisphenol A, reference compound]
Highest activity of GH3 proliferation induction ([1]; individual exposure 0.3-10 μM, relative to 0.1% DMSO control): 137% | LOEC for GH3 cell proliferation [1]: 2.5 µM | LOEC for enhancing T3-induced GH3 cell proliferation ([5]; co-exposed with 10 nM T3): 2.5 µM | Enhancement of T3-induced GH3 cell proliferation effect ([5]; co-exposed with 10 nM T3, 96 h): 20%

SMILES: C=CCOc1c(Br)cc(C(C)(C)c2cc(Br)c(OCC=C)c(Br)c2)cc1Br [TBBPA-BAE, TBBPA-bis(allyl ether)]
Inhibition of T3-induced GH3 cell proliferation effect ([5]; co-exposed with 10 nM T3): ~60%

SMILES: CC(C)(c1cc(Br)c(OCC(Br)CBr)c(Br)c1)c1cc(Br)c(OCC(Br)CBr)c(Br)c1 (centres unmarked) [TBBPA-BDBPE, TBBPA-bis(2,3-dibromopropyl ether)]
Effect on T3-induced GH3 cell proliferation ([5]; co-exposed with 10 nM T3): no effect

SMILES: CC(C)(c1cc(Br)c(OCC2CO2)c(Br)c1)c1cc(Br)c(OCC2CO2)c(Br)c1 (centres unmarked) [TBBPA-BGE, TBBPA-bis(glycidyl ether)]
TRβ-LBD RBP [2, 7]: 0.20 | IC20 [2, 8]: 25000 nM | Inhibition of T3-induced GH3 cell proliferation effect ([5]; co-exposed with 10 nM T3): approximately 80%

SMILES: C=CCOc1c(Br)cc(C(C)(C)c2cc(Br)c(O)c(Br)c2)cc1Br [TBBPA-MAE, TBBPA-mono(allyl ether)]
TRβ-LBD RBP [2, 7]: 1.25 | IC20 [2, 8]: 4000 nM | IC20 ([2]; mass concentration given beside the μM value, read-out: TRβ-LBD IC20): 2.3 µg/mL | TRα-LBD RBP [3, 7]: 0.25 | IC20 [3, 9]: 6000 nM | IC20 ([3]; mass concentration given beside the μM value, read-out: TRα-LBD IC20): 3.4 µg/mL | TTR RBP (relative binding potency) [6]: 2.00 | IC50 [6, 10]: 100 nM | TTR-binding potency, fold higher than T4 ([6]; compared with T4): 2 fold | TTR-binding potency, fold greater than TBBPA ([6]; compared with TBBPA): 2 fold | IC50 ([6]; mass concentration given beside the μM value, read-out: TTR IC50 (converted)): 97.6 nM

SMILES: CC(C)(c1cc(Br)c(O)c(Br)c1)c1cc(Br)c(OCC(Br)CBr)c(Br)c1 (centres unmarked) [TBBPA-MDBPE, TBBPA-mono(2,3-dibromopropyl ether)]
LOEC for GH3 cell proliferation [1]: 0.3 µM | LOEC for GH3 cell proliferation ([1]; mass concentration): 220 µg/L | TRβ-LBD RBP [2, 7]: 0.25 | IC20 ([2]; pH 7.5, read-out: TRβ-LBD IC20): 20000 nM | IC20 ([2]; read-out: TRβ-LBD IC20): 14.7 µg/mL | TRα-LBD RBP [3, 7]: 0.03 | IC20 ([3]; pH 7.5, read-out: TRα-LBD IC20): 50000 nM | IC20 ([3]; read-out: TRα-LBD IC20): 36.8 µg/mL | TTR RBP (relative binding potency) [6]: 0.20 | IC50 ([6]; TTR IC50, […] nM TTR, 50 nM F-T4, pH 7.5, 25°C, linear interpolation): 1000 nM | IC50 ([6]; TTR IC50, mass concentration given beside the μM value): 990 nM | TTR-binding potency, fold lower than natural ligand T4 ([6]; compared with T4): ~5 fold | LOEC for enhancing T3-induced GH3 cell proliferation ([5]; co-exposed with 10 nM T3): 0.3 µM | LOEC for enhancing T3-induced GH3 cell proliferation [5, 11]: 220 µg/L

SMILES: CC(C)(c1cc(Br)c(O)c(Br)c1)c1cc(Br)c(OCC2CO2)c(Br)c1 (centres unmarked) [TBBPA-MGE, TBBPA-mono(glycidyl ether)]
LOEC for GH3 cell proliferation [1]: 2.5 µM | LOEC for GH3 cell proliferation ([1]; mass concentration): 1400 µg/L | TRβ-LBD RBP [2]: 0.83 | IC20 [2, 8]: 6000 nM | TRα-LBD RBP [3]: 0.18 | IC20 [3, 9]: 8000 nM | TTR RBP (relative binding potency) [6]: 0.40 | IC50 [6, 10]: 500 nM | TTR-binding potency, fold lower than natural ligand T4 ([6]; compared with T4): approximately 2 fold | LOEC for enhancing T3-induced GH3 cell proliferation ([5]; co-exposed with 10 nM T3): 1.2 µM | LOEC for enhancing T3-induced GH3 cell proliferation [5, 11]: 700 µg/L
